Laboratory results taken from US20230263817A1, “HIGH DOSE NICOTINAMIDE ADENINE DINUCLEOTIDE (NAD) PRECURSOR REGIMENS FOR REDUCTION OF INFLAMMATION IN HUMAN PATIENTS WITH PREEXISTING INFLAMMATION” (University of Washington, priority 2021, published 2023).

Experiments:
[1] = Randomized trial of NR in HFrEF: exploratory endpoints (6MWD, MLHFQ, echocardiography); assay type: in vivo, human; settings: Week 12 vs baseline; study not powered
Protocol: Peripheral Blood Mononuclear Cell (PBMC) Mitochondrial Function. PBMCs were isolated from freshly-collected whole blood by centrifugation in Sepmate™-50 PBMC isolation tubes (STEMCELL Technologies, Vancouver, BC, Canada; Cat. 85450). Isolated PBMCs were resuspended in Seahorse XF® medium (Agilent, Cat. 102353-100) and then plated (10^6 cells/well) onto Seahorse® (Agilent) 24-well plates. PBMC mitochondrial respiratory function was assessed by measuring the oxygen consumption rate (OCR) at baseline and maximal stimulated conditions as described in Zhou B, et al. (J Clin Invest. 2020, 130:6054-6063 (Experimental Example 1)). Exploratory Endpoints. The following endpoints were considered exploratory, as the Study was underpowered to detect differences.
Six minute walk distance (6MWD). Any potential “training” effect (Laboratories ATSCoPSfCPF. ATS statement: guidelines for the six-minute walk test. Am J Respir Crit Care Med. 2002, 166:111-7) for 6MWD results was mitigated by performing a “training” test at the Screening Visit, while the second test, performed at the Randomization Visit was considered the Baseline test.
Echocardiography. Serial echocardiograms were performed using a standardized data collection protocol determined using the TOMTEC Arena Image-Com (TOMTEC Imaging Systems, Unterschleissheim, Germany). All echocardiograms were interpreted by a single observer, blinded to participant clinical data, randomized treatment assignment and echocardiogram temporal sequence. For evaluation of left ventricular systolic function by 2-dimensional (2-D), transthoracic echocardiography, 28 study pairs (NR=18, placebo=10) had evaluable data. For evaluation of left ventricular diastolic function by […] (E/e′), 24 study pairs (NR=17, placebo=7) had evaluable data.
Minnesota Living with Heart Failure Questionnaire (MLHFQ). The MLHFQ was administered to Study participants at the Screening and Randomization visits, as well as at Study visits at Weeks 2, 3, 4, 8 and 12.

[2] = Whole blood NAD+ in Stage D HF patients on oral NR for 5-9 days; assay type: in vivo, human; settings: oral NR up to 1000 mg twice a day, post vs pre
Protocol: For experiments associated with the oral NR administration (FIGS. 12C-12F), 5 hospitalized Stage D HF patients undergoing advanced heart failure therapy evaluations were put on escalating doses of NR (250 mg twice a day for Day 1, 500 mg twice a day for Day 2, and 1000 mg twice a day from Day 3 on) for 5-9 days. Fasting blood samples were obtained for PBMC isolation at baseline and post-NR administration. Subject 5 was withdrawn due to a change in clinical course deemed to be independent from NR administration.
Whole bloodNAD^+ assays. These were performed as previously described (Airhart S E, et al., PLoS One. 2017, 12(12):e0186459). Briefly, 50 μL of thawed blood samples were added to tubes containing 1 μg BMP as the internal standard and immediately followed by 300 μL of 4% trichloroacetic acid to precipitate proteins. Calibration standards were similarly prepared except that the matrix was 30 mg/mL BSA spiked with NAD^+ and NMN that had been dissolved in methanol. After protein precipitation and high-speed centrifugation, the supernatants were loaded onto Costar Spin-X 0.22 μm spin filters and subject to high speed centrifugation again. The eluates were injected onto an Agilent 1100 series high performance liquid chromatograph coupled to an Agilent G1956B single-quadrupole mass spectrometer. The mass spectrometer was operated in electrospray ionization mode with positive polarity.

NC(=O)c1ccc[n+]([C@@H]2O[C@H](CO)[C@@H](O)[C@H]2O)c1 [NR, nicotinamide riboside]
functional capacity, 6-minute walk test distance, NR vs placebo [1]: No on-trial differences between groups
left ventricular diastolic function (E/e′), NR vs placebo [1]: No on-trial differences between groups
left ventricular systolic function, 2D-LVEF, NR vs placebo [1]: No on-trial differences between groups
quality of life, MLHFQ score, NR vs placebo [1]: No on-trial differences between groups
whole blood NAD+ levels [2]: increases
